One assay deals with Msm ptet_clpP2. Type of assay: cell-based, Mycobacterium smegmatis. The settings on record: for growth of strain: sub-MIC concentration.
Assay [1] has as its target T1, Mtb ClpP1P2 (Mycobacterium tuberculosis, UniProt P9WPC3+P9WPC5). In words: biochemical. Type of assay: biochemical.
A further assay deals with ClpC1 ATPase (Mycobacterium tuberculosis, UniProt P9WPC9). Type of assay: biochemical.
Assay [2] deals with T1, Mtb ClpP1P2. Type of assay: biochemical. Particulars: for cleavage by ClpP1P2 (in words): activator present.
Assay [3] concerns the target T1, Mtb ClpP1P2. Type of assay: biochemical. Particulars: 10 best substrates each with Met, Leu, Phe, Ala at P1; library screening.
In assay [4] the target is T1, Mtb ClpP1P2. Type of assay: biochemical.
[5] abbreviates: low concentration of ATc (ClpP2 partially depleted).
Where [6] appears, read: substance is the substrate, Z-Gly-Gly-Leu-amc = 100.
Setting [7] is: Peptide Aldehydes (0.5 mM), peptidase activity with Z-Gly-Gly-Leu-amc, maximal activation by Z-Leu-Nle-aldehyde taken as 100%.
[8] abbreviates: Peptide Derivatives (1 mM), peptidase activity with Z-Gly-Gly-Leu-amc, Z-Leu-Leu-aldehyde 100.0.

“Also recorded” adds a separate entry of the source. Like-named read-outs stand apart in the source and are kept apart here. Starred links: 1 amine or outer side, 2 acyl side, 3 side chain; linkers in the order of their positions; H or OH if unused. Non-standard residues stand in square brackets, D forms with d. No end group written: not given here. *: point of attachment. Dpa(Dnp) = O=C([C@H](CNc1ccc([N+](=O)[O-])cc1[N+](=O)[O-])N[*:1])[*:2]; Mca = COc1ccc2c(CC(=O)*)cc(=O)oc2c1; Suc = O=C(CCC(=O)[*:2])[*:1]; Nle = CCCC[C@H](N)C(=O)O; Cbz = O=C(OCc1ccccc1)*; amc = not defined here

The Kd is a measure of binding affinity in units of concentration.

Sequence of ClpC1 ATPase (P9WPC9 whole entry): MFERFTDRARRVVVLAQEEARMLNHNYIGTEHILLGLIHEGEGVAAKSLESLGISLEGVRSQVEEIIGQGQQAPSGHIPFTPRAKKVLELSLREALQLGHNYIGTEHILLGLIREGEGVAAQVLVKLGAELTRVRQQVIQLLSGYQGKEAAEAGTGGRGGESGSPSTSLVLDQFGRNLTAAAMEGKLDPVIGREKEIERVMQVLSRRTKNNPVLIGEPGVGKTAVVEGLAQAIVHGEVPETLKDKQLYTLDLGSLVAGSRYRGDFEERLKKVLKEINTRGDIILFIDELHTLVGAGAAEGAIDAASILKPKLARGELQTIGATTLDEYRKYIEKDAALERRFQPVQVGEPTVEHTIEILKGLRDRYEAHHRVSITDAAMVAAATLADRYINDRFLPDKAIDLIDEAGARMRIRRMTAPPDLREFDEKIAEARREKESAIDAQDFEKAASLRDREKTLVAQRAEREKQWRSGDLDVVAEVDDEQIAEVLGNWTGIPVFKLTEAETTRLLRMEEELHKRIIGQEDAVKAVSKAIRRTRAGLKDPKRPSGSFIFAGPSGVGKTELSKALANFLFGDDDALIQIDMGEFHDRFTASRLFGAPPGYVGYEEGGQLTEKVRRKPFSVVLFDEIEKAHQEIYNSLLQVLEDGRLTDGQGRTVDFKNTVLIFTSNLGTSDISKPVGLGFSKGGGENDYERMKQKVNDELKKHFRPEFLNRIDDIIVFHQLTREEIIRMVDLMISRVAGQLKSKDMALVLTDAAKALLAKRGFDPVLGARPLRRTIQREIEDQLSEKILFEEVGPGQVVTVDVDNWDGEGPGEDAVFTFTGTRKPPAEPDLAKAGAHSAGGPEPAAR

Take `NCC[C@H](O)C(=O)N[C@@H]1C[C@H](N)[C@@H](O[C@H]2O[C@H](CN)[C@@H](O)[C@H](O)[C@H]2O)[C@H](O)[C@H]1O[C@H]1O[C@H](CO)[C@@H](O)[C@H](N)[C@H]1O` [amikacin]: the growth of strain entry with Msm ptet_clpP2 (high concentration of ATc) is “no effect on growth”; with Msm ptet_clpP2 (setting [5]) it was “significantly inhibited the growth”.

For Cbz-Gly-Leu-Leu, the “stimulation of ClpP1P2 activity (in words)” value (shortened to “stimulation”) on Mtb ClpP1P2 [1] (against Z-Gly-Gly-Leu-AMC) is “much smaller stimulation”.

Consider `Oc1c(Cl)cc(Cl)c(Cl)c1Cc1c(O)c(Cl)cc(Cl)c1Cl` [hexachlorophene], for which the “effect on ClpC1 ATPase activity (in words)” value at ClpC1 ATPase is “inhibits”. Besides, on ClpC1 ATPase (inhibition of ClpC1 ATPase activity), the “concentration at which the inhibitor works” value was in the range of 5 to 10 mM.

On to “Suc-Ala-Ala-Pro-Ala-amc (Suc-AAPA-amc; reading uncertain)”, for which the “RELATIVE RATES OF HYDROLYSIS (%)” value with Mtb ClpP1P2 [2] (setting [6]) is given as 0.08%.

In the case of “Mca-GHQQYAMK-Dpa(Dnp)-amide (Mca-GHQQYAMK[Dpa(Dnp)]-NH2)”, the “cleavage by ClpP1P2 (in words)” value in the assay with Mtb ClpP1P2 [2] (substance is the substrate) is “could cleave”.

In the case of Z-Ala-Ala-Ala-amc, the “RELATIVE RATES OF HYDROLYSIS (%)” value on Mtb ClpP1P2 [2] (setting [6]) was found to be 3.6%.

In the case of Z-Pro-Nlee-Asp-aldehyde, the “RELATIVE ACTIVITY (%)” value on Mtb ClpP1P2 [1] (setting [7]) was 1.2%. For the same molecule, on Mtb ClpP1P2 [1] (against Z-Gly-Gly-Leu-AMC), the “stimulation” value was “did not show any stimulatory capacity”.

For the molecule “Suc-Ala-Leu-Pro-Phe-amc (Suc-ALPF-amc; reading uncertain)”, in the assay with Mtb ClpP1P2 [2] (setting [6]), the “RELATIVE RATES OF HYDROLYSIS (%)” value was found to be 0.12%.

As for `CC(C)C[C@@H](C=O)NC(=O)[C@H](CC(C)C)NC(=O)OCc1ccccc1` [Z-Leu-Leu-aldehyde], binding at Mtb ClpP1P2 [1] was characterised by a dissociation constant (Kd) of 240 µM. Moreover, the “RELATIVE ACTIVITY (%)” value is recorded as 77.6% on Mtb ClpP1P2 [1] (setting [7]) and 100.0% on Mtb ClpP1P2 [1] (setting [8]). In addition, the “stimulation” value at Mtb ClpP1P2 [1] (against Z-Gly-Gly-Leu-AMC) is listed as “strongest stimulation”.

In the case of Z-Leu-Leu-Arg-amc, the “RELATIVE RATES OF HYDROLYSIS (%)” value at Mtb ClpP1P2 [2] (setting [6]) is listed as 0.25%.

As for Z-Leu-Leu-amc, the “RELATIVE RATES OF HYDROLYSIS (%)” value on Mtb ClpP1P2 [2] (setting [6]) is reported as 4.7%.

For Z-Leu-Leu-Glu-amc, the “RELATIVE RATES OF HYDROLYSIS (%)” value at Mtb ClpP1P2 [2] (setting [6]) was determined as 0.35%.

Regarding `CC(C)C[C@@H](CO)NC(=O)OCc1ccccc1` [Z-Leu-alcohol], at Mtb ClpP1P2 [1], the “RELATIVE ACTIVITY (%)” value was 2.4%.

Turning to Ala-Ala-Phe-amc, at Mtb ClpP1P2 [2] (setting [6]), the “RELATIVE RATES OF HYDROLYSIS (%)” value worked out at 87.0%.

Take Cbz-Gly-Gly-Leu: at Mtb ClpP1P2 [1] (setting [8]), the “RELATIVE ACTIVITY (%)” value worked out at 3.7%.

For Cbz-AP[Nle]D-aldehyde, at Mtb ClpP1P2 [1] (setting [7]), the “RELATIVE ACTIVITY (%)” value amounted to 0.8%.

For the molecule Z-Gly-Leu, the “RELATIVE ACTIVITY (%)” value on Mtb ClpP1P2 [1] (setting [8]) was 4.8%. The “stimulation” value at Mtb ClpP1P2 [1] (against Z-Gly-Gly-Leu-AMC) is listed as “much smaller stimulation”.

For the molecule Cbz-Phe-Tyr-aldehyde, the “RELATIVE ACTIVITY (%)” value on Mtb ClpP1P2 [1] (setting [7]) was 1.3%.

Turning to Z-Leu-Leu-Leu-amc, the “RELATIVE RATES OF HYDROLYSIS (%)” value at Mtb ClpP1P2 [2] (setting [6]) stood at 0.15%.

As for `Cc1cc(=O)oc2cc(NC(=O)C(N)Cc3ccccc3)ccc12` (stereo not drawn) [Phe-amc], the “RELATIVE RATES OF HYDROLYSIS (%)” value on Mtb ClpP1P2 [2] amounted to 0.26%.

In the case of “N-acetyl-Pro-Lys-Met-aminomethylcoumarin [PKM]”, the “Norm RFU” value at Mtb ClpP1P2 [3] stood at 1497.

On to “Mca-GNTQFKRR-Dpa(Dnp)-amide (Mca-GNTQFKRR[Dpa(Dnp)]-NH2)”, for which, in the assay with Mtb ClpP1P2 [2] (substance is the substrate), the “cleavage by ClpP1P2 (in words)” value is listed as “could cleave”.

Turning to Z-Leu-Nle-aldehyde, the “RELATIVE ACTIVITY (%)” value at Mtb ClpP1P2 [1] (setting [7]) was 100.0%.

Take `CC(C)C[C@H](NC(=O)OCc1ccccc1)C(=O)O` [Z-Leu]: on Mtb ClpP1P2 [1], the “RELATIVE ACTIVITY (%)” value was 5.3% and the “stimulation” value was “much smaller stimulation”.

As to `O=C(N[C@H](CO)[C@H](O)c1ccc([N+](=O)[O-])cc1)C(Cl)Cl` [chloramphenicol], the “viability, low versus high ATc” value in the assay with Msm ptet_clpP2 (sublethal concentration) is listed as “no difference in viability”.

With Z-Leu-Leu-alcohol, on Mtb ClpP1P2 [1] (setting [8]), the “RELATIVE ACTIVITY (%)” value was determined as 17.6%. Besides, on Mtb ClpP1P2 [1] (against Z-Gly-Gly-Leu-AMC), the “stimulation” value is given as “could also activate ClpP1P2”.

Turning to `Cc1cc(=O)oc2cc(NC(=O)[C@@H](N)CC(C)C)ccc12` [Leu-amc], the “RELATIVE RATES OF HYDROLYSIS (%)” value at Mtb ClpP1P2 [2] is 0.36%.

With Z-Gly-Gly-Arg-amc, the “RELATIVE RATES OF HYDROLYSIS (%)” value at Mtb ClpP1P2 [2] (setting [6]) is 0.55%.

With Suc-Leu-Tyr-amc, the “RELATIVE RATES OF HYDROLYSIS (%)” value on Mtb ClpP1P2 [2] (setting [6]) stood at 11.5%.

On to “Suc-Leu-Leu-Val-Tyr-amc (Suc-LLVY-amc; reading uncertain)”, for which, in the assay with Mtb ClpP1P2 [2] (setting [6]), the “RELATIVE RATES OF HYDROLYSIS (%)” value was 0.8%.

Consider `O=c1oc(Cl)c(Cl)c2ccccc12` [dichloroisocoumarin], for which the “inhibition of ClpP1P2 activity (in words)” value against Mtb ClpP1P2 [4] is “sensitive; also recorded: completely inhibit”.

With `Cc1cc(=O)oc2cc(NC(=O)C(C)N)ccc12` (stereo not drawn) [Ala-amc], the “RELATIVE RATES OF HYDROLYSIS (%)” value at Mtb ClpP1P2 [2] is 0.78%.

For the molecule Z-Gly-Gly-Leu-amc, the “RELATIVE RATES OF HYDROLYSIS (%)” value on Mtb ClpP1P2 [2] (setting [6]) amounted to 100.0%.

As for `CC(C)C[C@H](NC(=O)[C@H](CC(C)C)NC(=O)OCc1ccccc1)C(=O)O` [Z-Leu-Leu], binding on Mtb ClpP1P2 [1] was characterised by a dissociation constant (Kd) of 2200 µM. For the same molecule, the “RELATIVE ACTIVITY (%)” value is 96.0% on Mtb ClpP1P2 [1] (Active enzyme diluted (200x) without activator, then activator re-added); 100.0% at Mtb ClpP1P2 [1] (Active enzyme diluted (200x), with activator); 1.2% at Mtb ClpP1P2 [1] (Active enzyme diluted (200x), without activator); 18.5% on Mtb ClpP1P2 [1] (setting [8]). For the same molecule, the “stimulation” value at Mtb ClpP1P2 [1] (against Z-Gly-Gly-Leu-AMC) is listed as “could also activate ClpP1P2”. In addition, the “effect on ClpC1 ATPase activity (in words)” value on ClpC1 ATPase was “did not influence”.

Regarding Asp-amc, the “RELATIVE RATES OF HYDROLYSIS (%)” value at Mtb ClpP1P2 [2] amounted to 0.1%.

As to `[H]/N=C(/N)N[C@H]1[C@H](O)[C@@H](O)[C@H](O[C@@H]2O[C@@H](C)[C@](O)(C=O)[C@H]2O[C@@H]2O[C@@H](CO)[C@H](O)[C@@H](O)[C@@H]2NC)[C@@H](N/C(N)=N\[H])[C@@H]1O` [streptomycin], the results for the growth of strain result in the assay on Msm ptet_clpP2 (high concentration of ATc) and in the assay on Msm ptet_clpP2 (setting [5]) were “no effect on growth” and “significantly inhibited the growth”, respectively.

With Z-Leu-Leu-leucinal, the “stimulation” value at Mtb ClpP1P2 [1] (against Z-Gly-Gly-Leu-AMC) is recorded as “significantly less active”.

In the case of “Mca-GNQQYKMK-Dpa(Dnp)-amide (Mca-GNQQYKMK[Dpa(Dnp)]-NH2)”, the “cleavage by ClpP1P2 (in words)” value with Mtb ClpP1P2 [2] (substance is the substrate) was “could cleave”.

Consider Z-Phe-Val-Arg-amc, for which the “RELATIVE RATES OF HYDROLYSIS (%)” value at Mtb ClpP1P2 [2] (setting [6]) was 0.18%.

With Ac-Nle-Pro-Nle-Asp-amc, the “RELATIVE RATES OF HYDROLYSIS (%)” value on Mtb ClpP1P2 [2] (setting [6]) is on record as 36.0%.

Regarding Suc-Ala-Ala-Phe-amc, the “RELATIVE RATES OF HYDROLYSIS (%)” value at Mtb ClpP1P2 [2] (setting [6]) was 42.0%.

For “Mca-KKPTPIQLN-Dpa(Dnp)-amide (Mca-KKPTPIQLN[Dpa(Dnp)]-NH2)”, the “cleavage by ClpP1P2 (in words)” value with Mtb ClpP1P2 [2] (substance is the substrate) is on record as “could cleave”.

Consider Cbz-Val-Phe-aldehyde, for which the “RELATIVE ACTIVITY (%)” value at Mtb ClpP1P2 [1] (setting [7]) came out at 1.9%. For the same molecule, the “stimulation” value at Mtb ClpP1P2 [1] (against Z-Gly-Gly-Leu-AMC) is on record as “did not show any stimulatory capacity”.

The values are drawn from patent US9925251B2, “Treatments for Mycobacterium tuberculosis” (priority 2011, dated 2018).
